Results taken from EPA's ToxRefDB 2.

How the values were obtained:
rat [1] = conditions: Subchronic oral toxicity in rodents, fischer, Gavage/Intubation, dose end: 14 week, group: systemic
mouse [2] = conditions: Subchronic oral toxicity in rodents, b6c3f1, Gavage/Intubation, dose end: 14 week, group: systemic, systemic / hematology / erythrocyte (rbc) count differential / erythrocyte (rbc) + systemic / hematology / hematocrit (hct) / hematocrit (…
rat [3] = conditions: Subchronic oral toxicity in rodents, sprague dawley, Feed, dose end: 3 month, group: systemic
rat [4] = conditions: Prenatal developmental toxicity study, sprague dawley, Oral, Gavage/Intubation, dose end: 17 GD
dog [5] = conditions: Subchronic oral toxicity in nonrodent, beagle, Capsule, dose end: 90 day, group: systemic
dog [6] = conditions: Chronic toxicity, beagle, Oral, Capsule, dose end: 52 week, group: systemic
dog [7] = conditions: Subchronic oral toxicity in nonrodent, beagle, Capsule, dose end: 90 day, group: systemic, systemic / clinical chemistry / alanine aminotransferase (alt/sgpt) / alanine aminotransferase (alt/sgpt) + systemic / clinical chemistry / …
rabbit = conditions: Prenatal developmental toxicity study, new zealand white, Oral, Gavage/Intubation, dose end: 20 GD
mouse [8] = conditions: Carcinogenicity, cd1, Oral, Water, dose end: 104 week, group: systemic
rat [9] = conditions: Combined chronic toxicity/carcinogenicity, wistar, Oral, Water, dose end: 104 week, group: systemic
rat [10] = conditions: Prenatal developmental toxicity study, wistar, Oral, Gavage/Intubation, dose end: 17 GD
[11] = systemic / clinical chemistry / alanine aminotransferase (alt/sgpt) / alanine aminotransferase (alt/sgpt) + systemic / clinical chemistry / …
[12] = systemic / hematology / hematocrit (hct) / hematocrit (hct) + systemic / pathology microscopic / nose / degeneration + systemic / clinical …
[13] = systemic / hematology / hematocrit (hct) / hematocrit (hct) + systemic / hematology / hemoglobin (hgb) / hemoglobin (hgb)
[14] = systemic / hematology / hematocrit (hct) / hematocrit (hct) + systemic / hematology / hemoglobin (hgb) / hemoglobin (hgb) + systemic / in …
[15] = group: developmental, developmental / developmental malformation / bone / full supernumerary + developmental / developmental malformation / bone / cervical + …
[16] = group: maternal, systemic / in life observation / body weight / body weight gain + systemic / in life observation / food consumption / food consumption
[17] = group: maternal, systemic / in life observation / body weight / body weight gain + systemic / in life observation / food consumption / food consumption + …
[18] = systemic / organ weight / liver / absolute + systemic / organ weight / liver / relative to body weight
[19] = systemic / clinical chemistry / alanine aminotransferase (alt/sgpt) / alanine aminotransferase (alt/sgpt) + systemic / pathology microscopic…
[20] = systemic / clinical chemistry / aspartate aminotransferase (ast/sgot) / aspartate aminotransferase (ast/sgot) + systemic / hematology / …
[21] = group: developmental, developmental / developmental malformation / bone / enlarge suture + developmental / developmental malformation / bone / incomplete …
[22] = systemic / in life observation / food consumption / food consumption + systemic / in life observation / water consumption / water …
[23] = systemic / pathology microscopic / liver / sarcoma + systemic / pathology gross / full gross necropsy / sarcoma
[24] = systemic / clinical chemistry / cholesterol / cholesterol + systemic / clinical chemistry / triglycerides / triglycerides + systemic / …
[25] = group: developmental, developmental / developmental malformation / bone / unossified + developmental / developmental malformation / other / other + systemic / in …

CCCC=NO [Butanal oxime]
LOAEL (rat [1]; [11]): > 600 mg/kg/day
NOAEL (rat [1]; [11]): ≥ 600 mg/kg/day
LEL (rat [1]; [12]): 25 mg/kg/day
NEL (rat [1]; [12]): < 25 mg/kg/day
LEL (mouse [2]): 25 mg/kg/day
LOAEL (mouse [2]): > 600 mg/kg/day
NEL (mouse [2]): < 25 mg/kg/day
NOAEL (mouse [2]): ≥ 600 mg/kg/day

CC(C)(C)C(O)/C(=C\c1ccc(Cl)cc1Cl)n1cncn1 (stereo unspecified) [Diniconazole]
LOAEL (rat [3]; [13]): 0.71 mg/kg/day
NOAEL (rat [3]; [13]): < 0.71 mg/kg/day
LEL (rat [3]; [14]): 0.71 mg/kg/day
NEL (rat [3]; [14]): < 0.71 mg/kg/day
LOAEL (rat [4]; group: developmental, developmental / developmental malformation / bone / full supernumerary + developmental / developmental malformation / bone / cervical): 20 mg/kg/day
LEL (rat [4]; [15]): 20 mg/kg/day
NEL (rat [4]; [15]): 5 mg/kg/day
NOAEL (rat [4]; [15]): 5 mg/kg/day
LEL (rat [4]; [16]): 20 mg/kg/day
LOAEL (rat [4]; [16]): 20 mg/kg/day
NEL (rat [4]; [17]): 5 mg/kg/day
NOAEL (rat [4]; [17]): 5 mg/kg/day
LOAEL (dog [5]; systemic / in life observation / food consumption / food efficiency): 200 mg/kg/day
NOAEL (dog [5]; systemic / in life observation / food consumption / food efficiency + systemic / clinical chemistry / alkaline phosphatase (alp/alk) / …): 40 mg/kg/day
LEL (dog [5]; [18]): 40 mg/kg/day
NEL (dog [5]; [18]): < 40 mg/kg/day

CNC(=S)[S-].[Na+] [Metam-sodium]
LOAEL (dog [6]; [19]): 1 mg/kg/day
NOAEL (dog [6]; [19]): 0.1 mg/kg/day
LEL (dog [6]; [20]): 0.05 mg/kg/day
NEL (dog [6]; [20]): < 0.05 mg/kg/day
LEL (dog [7]): 1 mg/kg/day
LOAEL (dog [7]): 1 mg/kg/day
NEL (dog [7]): < 1 mg/kg/day
NOAEL (dog [7]): < 1 mg/kg/day
LEL (rabbit; [21]): 20 mg/kg/day
LOAEL (rabbit; [21]): 20 mg/kg/day
NEL (rabbit; [21]): 5 mg/kg/day
NOAEL (rabbit; [21]): 5 mg/kg/day
LEL (rabbit; [17]): 20 mg/kg/day
LOAEL (rabbit; [17]): 20 mg/kg/day
NEL (rabbit; [17]): 5 mg/kg/day
NOAEL (rabbit; [17]): 5 mg/kg/day
LOAEL (mouse [8]; [22]): 6.5 mg/kg/day
NOAEL (mouse [8]; [22]): 1.6 mg/kg/day
LEL (mouse [8]; [23]): 1.6 mg/kg/day
NEL (mouse [8]; [23]): < 1.6 mg/kg/day
LOAEL (rat [9]; [24]): 12 mg/kg/day
NOAEL (rat [9]; [24]): 3.9 mg/kg/day
LEL (rat [9]; systemic / in life observation / body weight / body weight gain): 6.2 mg/kg/day
NEL (rat [9]; systemic / in life observation / body weight / body weight gain + systemic / clinical chemistry / cholesterol / cholesterol + systemic / …): 2.3 mg/kg/day
LOAEL (rat [10]; group: developmental, developmental / developmental malformation / bone / unossified + developmental / developmental malformation / other / other): 20 mg/kg/day
LEL (rat [10]; [25]): 20 mg/kg/day
NEL (rat [10]; [25]): 5 mg/kg/day
NOAEL (rat [10]; [25]): 5 mg/kg/day
LOAEL (rat [10]; [16]): 20 mg/kg/day
LEL (rat [10]; [17]): 20 mg/kg/day
NEL (rat [10]; [17]): 5 mg/kg/day
NOAEL (rat [10]; [17]): 5 mg/kg/day
